In US9878007B2, “Syndecan peptides and polypeptides as inhibitors of vascular endothelial growth factor receptor-2 (VEGFR2) and very late antigen-4 (VLA-4)” (Wisconsin Alumni Research Foundation, priority 2015, dated 2018):

Key:
CAG myeloma cells [1] = experiment: Cell spreading / attachment assay of CAG myeloma cells on FN or VCAM-1; type: cell-based, human
Protocol: Nitrocellulose-coated slides were coated for 2 hr at 37° C. with 40 μg/ml FN (kindly provided by Dr. Donna Peters, University of Wisconsin-Madison) or 5 μg/ml recombinant VCAM-1/Fc chimera (R&D Systems) in calcium and magnesium-free PBS (CMF-PBS; 135 mM NaCl, 2.7 mM KCl, 10.2 mM Na2HPO4-7H20 and 1.75 mM KH2PO4, pH7.4). Slides were blocked for 1 hr at 37° C. with RPMI 1640 containing 1% heat-denatured BSA (plating medium). Cells in plating medium were allowed to attach and spread for 2.5 hr at 37° C. Slides were fixed in 4% EM grade paraformaldehyde (Electron Microscopy Sciences) in CMF-PBS and labeled for 30 min in 0.13 μM rhodamine phalloidin (Invitrogen) in CMF-PBS. Coverslips were mounted in non-fluorescing mounting medium (Immumount; Thermo Shandon) and allowed to dry. All images were acquired with a Nikon Microphot FX microscope using a 20× objective (Nikon; Ex 541-551, DM 580, Barrier 590), Photometric CoolSnap ES camera, and version 7.7.3.0 Metamorph© Imaging software (Molecular Devices). All images represent results from triplicate wells and at least three independent experiments.

VLA-4 = target: T1, VLA-4 (Homo sapiens, UniProt P05556+P13612); experiment: GST pull down assay: capture of VLA-4 by GST-S1ED; type: binding
T1 construct: the α4-integrin (VLA-4), which is expressed on myeloma cells; endogenous in cells; host or cells: CAG human myeloma cells (HPSE^low), whole-cell lysate
Protocol: (§1) FIGS. 6A-G. Peptides derived from the active site in Sdc1 activate or inhibit adhesion and invasion. (FIG. 6A) Transwell migration assays towards FN (for 16 hrs) were performed for HPSE low or high cells in the presence of 0, 0.3, 3, and 30 μM of S1ED^210-240. Cells migrating to the bottom side of the filter were counted from five random images for each treatment. (FIG. 6B) The sequence of S1ED210-240 is shown (SEQ ID NO: 3), as well as […] truncation mutants of the peptide (SEQ ID NOs: 5, 2, 4 and 7). Amino acids shown in red appear necessary for the spreading and invasive activity. (FIG. 6C) Images of HPSE^low and HPSE^high cells plated on FN for 2 hr. (FIG. 6D) HPSE^low cells were treated with 0, 0.3, 3, 10 and 30 μM of S1ED^210-236, S1ED^210-233, or S1ED^214-240, plated on FN for 2 hr, fixed and stained with fluorescent phalloidin. Cells from five random images were quantified for cell attachment and cell spreading. (FIG. 6E) HPSE^high cells were treated with 0, 3, 10, and 30 μM of S1ED^210-236, S1ED^210-233, and S1ED^214-240, plated on FN for 2 hr, then fixed, imaged and quantified as in FIG. 6D. (FIG. 6F) Transwell migration assays towards FN (for 16 hr) were performed for HPSE^low or HPSE^high cells in the presence of 30 μM of S1ED^210-236, S1ED^210-233, S1ED^214-240 and Vandetanib. (FIG. 6G) HPSE^low cell lysates were incubated overnight with glutathione beads coated with GST or GST-S1ED in the absence or presence of 30 μM of S1ED^210-236, S1ED^210-233, and S1ED^214-240. Capture of VLA-4 or VEGFR2 was detected by immunoblotting. Sequences in FIG. 6B are 210-240 (SEQ ID NO: 3), 210-236 (SEQ ID NO: 2), 210-233 (SEQ ID NO: 4), 214-240 (SEQ ID NO: 5) and 214-236 (SEQ ID NO: 7).
(§2) CAG cells were washed with CMF-PBS and then lysed for 20 min on ice in lysis buffer. Cell debris was removed by centrifugation at 13000 rpm for 20 min at 4° C. Whole cell lysates were then incubated at 4° C. overnight with either 3 μM GST or 3 μM GST-S1ED in the absence or presence of 1 μM, 3 μM, and 10 μM S1ED^210-240 peptide. GST or GST-S1ED was captured by addition of glutathione Sepharose and the beads were washed with ice-cold lysis buffer and CMF-PBS, prior to addition of SDS-PAGE sample buffer and analyszed by electrophoresis and western blotting as described previously.

VEGFR2 = target: T2, VEGFR2 (Homo sapiens, UniProt P35968); experiment: GST pull down assay: capture of VEGFR2 by GST-S1ED; type: binding
T2 construct: endogenous in cells; host or cells: CAG human myeloma cells (HPSE^low = empty vector; HPSE^high = human HPSE cDNA)
Protocol: as §1, §2

VLA-4 and VEGFR2 = target: T3, VLA-4 and VEGFR2 (Homo sapiens, UniProt P05556+P13612+P35968); experiment: Immunostaining for co-localization of GST-S1ED with VLA-4 or VEGFR2; type: cell-based; details: HPSE^low cells on FN, 4 μM GST-S1ED, 2.5 hrs
T3 construct: the α4-integrin (VLA-4), which is expressed on myeloma cells; endogenous in cells; host or cells: CAG human myeloma cells (HPSE^low / HPSE^high) plated on fibronectin
Protocol: (§3) FIGS. 5A-C. Recombinant Sdc1 ectodomain (GST-S1ED) causes capture of VEGFR2 by VLA-4. (FIG. 5A) HPSE^high cells were plated on FN for 2.5 hrs and double stained for VLA-4 and VEGFR2. (FIG. 5B) HPSE^low cells were plated on FN in the presence of 4 μM GST-S1ED. After 2.5 hrs, cells were double-stained for GST to detect the GST-S1ED and VLA-4 or VEGFR2. (FIG. 5C) HPSE^low cells were plated on FN-pre-coated dishes for 2.5 hr in the absence or presence of GST-S1ED and whole cell lysates were prepared for immunoprecipitation with anti-VEGFR2 and VLA-4 antibodies. The associated VLA-4 was detected by immunoblotting with a VLA-4 antibody.
Fixed cells on FN-coated slides were quenched with 0.1 M glycine, permeabilized with CMF-PBS containing 0.1% Triton X-100 for 3 min at room temperature (RT) and blocked with 5% BSA in CMF-PBS. […]

VEGFR2 and VLA-4 [2] = target: T4, VEGFR2 and VLA-4 (Homo sapiens, UniProt P05556+P13612+P35968); experiment: Immunoprecipitation of VEGFR2 and detection of associated VLA-4; type: cell-based; details: HPSE^low cells on FN, 2.5 hr, in the presence of GST-S1ED
T4 construct: the α4-integrin (VLA-4), which is expressed on myeloma cells; endogenous in cells; host or cells: CAG human myeloma cells (HPSE^low / HPSE^high) plated on fibronectin
Protocol: as §3
HPSE^low cells were plated on FN in the presence of 4 μg/ml GST or GST-S1ED for 2.5 hr. The cells were washed with CMF-PBS, then lysed for 20 min on ice in lysis buffer (0.5% Triton X-100 in 50 mM Hepes, 50 mM NaCl and 10 mM EDTA (pH 7.4) containing a 1:1000 dilution of protease inhibitor mixture set III (Calbiochem). Cell lysates were precleared at 13000 rpm for 20 min at 4° C. using 50 μg/ml isotype-matched nonspecific IgG and 30 μl of protein G agarose (GE Healthcare), then incubated at 4° C. overnight with either 10 μg/ml anti-α4-integrin (P1H4) or VEGFR2 (mAb 55B11) or nonspecific mouse IgG. Immunoprecipitated α4-integrin or VEGFR2 were dissolved in SDS sample buffer), electrophoresed and analyzed on western blots as described previously. […]

VEGFR2 and VLA-4 [3] = target: T4, VEGFR2 and VLA-4; experiment: Activation / inhibition of Sdc1-mediated coupling of VEGFR2 to VLA-4 (FIGS. 6A-H); type: cell-based
Protocol: as §1
It is envisioned that a peptide that contains binding sites for both VEGFR2 and VLA-4, such as 210-236, has the capacity to bridge both receptors and link them together. This activates signaling that the cells use for migration and invasion. […]

[4] = test system: human SKBr3 mammary carcinoma cells; experiment: Breast cancer xenograft treated with systemic peptide; type: in vivo; details: SKBr3 xenografts in nude mice; 1.09 mg/kg/day by Alzet pump for 3 weeks
Protocol: FIG. 9. Treatment of breast cancer xenograft with systemic S1ED^210-240. 4×10^6 human SKBr3 mammary carcinoma cells were injected in a 1:1 mix with matrigel into the posterior flanks of immunodeficient nude (nu/nu) mice and allowed to establish for one week as palpable tumors. Alzet pumps were then implanted subcutaneously on the anterior dorsal backs of the animals, systemically delivering either phosphate buffered-saline alone (PBS) or S1ED 210-240 peptide in PBS for 3 weeks of treatment. Peptide was delivered at 1.09 mg/kg/day, a concentration estimated to achieve concentrations sufficient to block the VLA-4/VEGFR2 mechanism. Tumor sizes were measured with calipers and converted to tumor volumes using the equation […]. The data are shown as the mean of 12 tumors+/−S.E.M.

CAG myeloma cells [5] = experiment: Transwell migration assay of CAG myeloma cells towards FN; type: cell-based, human; details: 16 hrs
Protocol: The bottom chambers of Transwell filter chambers (8 μm pores; Corning) were coated with 40 μg/ml of FN. Cells (5×10^5 in 0.2 ml plating medium) were placed in the upper chamber and incubated for 16 hr at 37° C. in the CO2 incubator. After incubation, cells in the upper chamber were removed and cells on the bottom side of the filter were fixed in 4% paraformaldehyde (PFA) and stained with 0.1% Crystal Violet before imaging. Cells from at least five random fields were counted.

T2 sequence (P35968 20-1356): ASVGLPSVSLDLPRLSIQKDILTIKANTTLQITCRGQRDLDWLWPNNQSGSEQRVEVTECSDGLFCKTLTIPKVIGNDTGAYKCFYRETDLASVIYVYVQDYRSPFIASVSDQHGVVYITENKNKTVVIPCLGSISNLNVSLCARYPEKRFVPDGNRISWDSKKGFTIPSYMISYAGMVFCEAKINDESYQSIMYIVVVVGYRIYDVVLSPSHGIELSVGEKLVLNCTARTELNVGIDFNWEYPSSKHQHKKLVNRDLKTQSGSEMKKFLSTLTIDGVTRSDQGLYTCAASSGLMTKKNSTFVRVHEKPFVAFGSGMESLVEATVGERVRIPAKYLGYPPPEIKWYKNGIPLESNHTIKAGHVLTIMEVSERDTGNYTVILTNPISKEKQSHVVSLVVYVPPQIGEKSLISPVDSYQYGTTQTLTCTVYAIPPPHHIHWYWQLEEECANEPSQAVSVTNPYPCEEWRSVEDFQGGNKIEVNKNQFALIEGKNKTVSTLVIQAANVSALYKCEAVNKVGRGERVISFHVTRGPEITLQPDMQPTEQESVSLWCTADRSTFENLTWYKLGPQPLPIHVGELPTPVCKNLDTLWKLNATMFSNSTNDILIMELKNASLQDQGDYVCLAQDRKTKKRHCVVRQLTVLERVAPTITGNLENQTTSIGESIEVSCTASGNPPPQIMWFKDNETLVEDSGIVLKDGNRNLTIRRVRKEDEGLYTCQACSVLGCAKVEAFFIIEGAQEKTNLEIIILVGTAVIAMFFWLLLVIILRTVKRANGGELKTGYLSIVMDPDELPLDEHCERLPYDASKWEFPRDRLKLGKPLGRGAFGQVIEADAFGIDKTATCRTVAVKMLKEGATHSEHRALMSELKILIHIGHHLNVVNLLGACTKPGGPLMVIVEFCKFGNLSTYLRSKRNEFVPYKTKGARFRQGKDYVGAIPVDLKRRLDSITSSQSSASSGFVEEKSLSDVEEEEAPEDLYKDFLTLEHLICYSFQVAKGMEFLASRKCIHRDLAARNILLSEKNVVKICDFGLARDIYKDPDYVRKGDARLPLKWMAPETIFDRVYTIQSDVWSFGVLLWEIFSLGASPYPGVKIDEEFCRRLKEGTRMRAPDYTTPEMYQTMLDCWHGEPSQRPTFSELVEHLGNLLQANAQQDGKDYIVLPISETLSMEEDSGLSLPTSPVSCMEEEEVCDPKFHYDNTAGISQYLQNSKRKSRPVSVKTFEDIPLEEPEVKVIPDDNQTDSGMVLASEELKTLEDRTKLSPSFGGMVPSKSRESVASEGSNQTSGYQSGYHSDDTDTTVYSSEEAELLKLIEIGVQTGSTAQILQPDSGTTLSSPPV
T4 sequence (P35968 20-1356): as above
T4 sequence (P13612 34-1032): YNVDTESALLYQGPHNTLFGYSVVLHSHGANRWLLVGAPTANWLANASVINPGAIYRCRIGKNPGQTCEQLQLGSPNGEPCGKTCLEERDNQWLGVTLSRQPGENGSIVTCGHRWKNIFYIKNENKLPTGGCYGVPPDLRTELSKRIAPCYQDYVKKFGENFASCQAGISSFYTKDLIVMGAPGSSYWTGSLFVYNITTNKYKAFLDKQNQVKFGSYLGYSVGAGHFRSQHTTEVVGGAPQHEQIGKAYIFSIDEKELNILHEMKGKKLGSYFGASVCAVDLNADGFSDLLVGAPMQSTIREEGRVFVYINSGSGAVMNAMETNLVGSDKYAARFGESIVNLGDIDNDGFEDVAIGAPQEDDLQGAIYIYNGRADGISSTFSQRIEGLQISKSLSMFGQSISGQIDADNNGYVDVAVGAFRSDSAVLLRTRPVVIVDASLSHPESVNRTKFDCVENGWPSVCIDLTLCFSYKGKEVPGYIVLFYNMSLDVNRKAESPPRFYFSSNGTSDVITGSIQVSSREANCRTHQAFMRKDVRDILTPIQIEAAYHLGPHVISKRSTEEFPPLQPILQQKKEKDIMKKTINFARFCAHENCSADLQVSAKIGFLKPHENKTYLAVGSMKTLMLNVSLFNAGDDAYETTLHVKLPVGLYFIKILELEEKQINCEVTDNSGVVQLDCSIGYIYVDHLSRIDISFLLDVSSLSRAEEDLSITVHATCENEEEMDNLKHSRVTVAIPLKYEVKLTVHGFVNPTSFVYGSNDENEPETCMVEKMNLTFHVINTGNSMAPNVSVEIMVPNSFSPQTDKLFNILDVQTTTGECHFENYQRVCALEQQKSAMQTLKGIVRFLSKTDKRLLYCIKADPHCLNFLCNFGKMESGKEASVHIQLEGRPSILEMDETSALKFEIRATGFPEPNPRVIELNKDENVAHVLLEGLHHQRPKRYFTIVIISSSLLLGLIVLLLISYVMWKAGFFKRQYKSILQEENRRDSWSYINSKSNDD
T4 sequence (P05556 21-798): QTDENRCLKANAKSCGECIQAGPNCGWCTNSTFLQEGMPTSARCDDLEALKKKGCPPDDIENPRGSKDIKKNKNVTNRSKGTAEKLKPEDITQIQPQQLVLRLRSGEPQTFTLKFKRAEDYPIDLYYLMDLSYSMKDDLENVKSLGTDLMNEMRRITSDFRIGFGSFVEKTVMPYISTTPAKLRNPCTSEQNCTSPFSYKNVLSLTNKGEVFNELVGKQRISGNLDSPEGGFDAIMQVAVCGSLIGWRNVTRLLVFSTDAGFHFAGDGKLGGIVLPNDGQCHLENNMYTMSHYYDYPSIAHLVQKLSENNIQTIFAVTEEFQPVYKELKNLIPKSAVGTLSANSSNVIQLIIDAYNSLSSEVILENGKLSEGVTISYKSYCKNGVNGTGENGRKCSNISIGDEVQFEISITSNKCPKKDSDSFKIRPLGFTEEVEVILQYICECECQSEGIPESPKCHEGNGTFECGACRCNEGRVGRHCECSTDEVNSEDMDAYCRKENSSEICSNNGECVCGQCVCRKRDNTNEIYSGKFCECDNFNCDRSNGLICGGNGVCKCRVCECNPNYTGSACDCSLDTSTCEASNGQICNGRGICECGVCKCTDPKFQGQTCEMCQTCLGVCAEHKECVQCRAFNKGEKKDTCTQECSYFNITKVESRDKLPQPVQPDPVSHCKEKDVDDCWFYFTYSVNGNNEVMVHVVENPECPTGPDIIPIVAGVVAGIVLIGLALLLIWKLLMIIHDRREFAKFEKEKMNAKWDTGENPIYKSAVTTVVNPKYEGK
T1 sequence (P13612 34-1032): as the sequence (P13612 34-1032) above
T1 sequence (P05556 21-798): as the sequence (P05556 21-798) above
T3 sequence (P35968 20-1356): as the sequence (P35968 20-1356) above
T3 sequence (P13612 34-1032): as the sequence (P13612 34-1032) above
T3 sequence (P05556 21-798): as the sequence (P05556 21-798) above

capture of VLA-4 by GST-S1ED (VLA-4; CAG myeloma cell lysates) | capture of VEGFR2 by GST-S1ED (VEGFR2; CAG myeloma cell lysates) | concentration at which the peptide inhibits the mechanism (VEGFR2 and VLA-4 [3]) | Substance | rescue of HPSE^high polarized phenotype blocked by MMP9 blocking antibody (CAG myeloma cells [1]; on FN, GST-S1ED added) | induction of HPSE^low cell spreading by GST-S1ED constructs (CAG myeloma cells [1]; on VCAM-1, 4 μM GST-S1ED constructs) | capture of VLA-4 by GST-S1ED (VLA-4; HMEC-1 cell lysate) | capture of VEGFR2 by GST-S1ED (VEGFR2; HMEC-1 cell lysate) | co-localization with VEGFR2 or VLA-4 (VLA-4 and VEGFR2) | co-immunoprecipitation of VLA-4 with VEGFR2 (VEGFR2 and VLA-4 [2]) | induction of HPSE^low cell spreading by S1ED peptides (CAG myeloma cells [1]; on VCAM-1, 0.3 μM peptide) | size of the tumors [4] | FN-induced migration of HPSE^high cells (CAG myeloma cells [5]; 30 μM peptide) | migration of HPSE^low cells (CAG myeloma cells [5]; 30 μM peptide) | migration of HPSE^low cells (CAG myeloma cells [5]; low concentrations, 0.3-3 μM peptide)
captures both VLA-4 and VEGFR2 | captures both VLA-4 and VEGFR2 |  | GST-S1ED: recombinant GST-tagged Sdc1 ectodomain expressed in bacteria and devoid of HS | polarized phenotype is rescued | induced cell spreading | captures VLA-4 and VEGFR2 from HMEC-1 cells lysates | captures VLA-4 and VEGFR2 from HMEC-1 cells lysates | co-localized with VEGFR2 or VLA-4 at the protrusive lamellipodium | VLA-4 is co-immunoprecipitated with VEGFR2 |  |  |  |  | 
 |  | 30 µM | S1ED^210-240: peptide corresponding to amino acids 210-240 of syndecan-1 ectodomain (SEQ ID NO: 3) (DFTFETSGENTAVVAVEPDRRNQSPVDQGAT) |  |  |  |  |  |  | sufficient to induce HPSE^low cell spreading on VCAM-1 | effectively reduced the size of the tumors | decreased | failed to induce | induced migration of HPSE^low cells at low concentrations
